Data published in patent publication US20220105051A1, “COMPOUNDS FOR INCREASING MHC-I EXPRESSION AND MODULATING HISTONE DEACETYLASE ACTIVITY” (Cava Healthcare Inc., priority 2019, published 2022).
“Also recorded” adds a separate entry of the source.

Tests used:
Assay type in all cases: biochemical
Settings in all cases: purified enzyme, 5 to 0.02 μM
HDAC6 = biological target: T1, HDAC6 (Homo sapiens, UniProt Q9UBN7); assay: Individualized HDAC assay, HDAC6
T1 construct: purchased BPS Biosciences
T1 sequence (Q9UBN7 1-1215): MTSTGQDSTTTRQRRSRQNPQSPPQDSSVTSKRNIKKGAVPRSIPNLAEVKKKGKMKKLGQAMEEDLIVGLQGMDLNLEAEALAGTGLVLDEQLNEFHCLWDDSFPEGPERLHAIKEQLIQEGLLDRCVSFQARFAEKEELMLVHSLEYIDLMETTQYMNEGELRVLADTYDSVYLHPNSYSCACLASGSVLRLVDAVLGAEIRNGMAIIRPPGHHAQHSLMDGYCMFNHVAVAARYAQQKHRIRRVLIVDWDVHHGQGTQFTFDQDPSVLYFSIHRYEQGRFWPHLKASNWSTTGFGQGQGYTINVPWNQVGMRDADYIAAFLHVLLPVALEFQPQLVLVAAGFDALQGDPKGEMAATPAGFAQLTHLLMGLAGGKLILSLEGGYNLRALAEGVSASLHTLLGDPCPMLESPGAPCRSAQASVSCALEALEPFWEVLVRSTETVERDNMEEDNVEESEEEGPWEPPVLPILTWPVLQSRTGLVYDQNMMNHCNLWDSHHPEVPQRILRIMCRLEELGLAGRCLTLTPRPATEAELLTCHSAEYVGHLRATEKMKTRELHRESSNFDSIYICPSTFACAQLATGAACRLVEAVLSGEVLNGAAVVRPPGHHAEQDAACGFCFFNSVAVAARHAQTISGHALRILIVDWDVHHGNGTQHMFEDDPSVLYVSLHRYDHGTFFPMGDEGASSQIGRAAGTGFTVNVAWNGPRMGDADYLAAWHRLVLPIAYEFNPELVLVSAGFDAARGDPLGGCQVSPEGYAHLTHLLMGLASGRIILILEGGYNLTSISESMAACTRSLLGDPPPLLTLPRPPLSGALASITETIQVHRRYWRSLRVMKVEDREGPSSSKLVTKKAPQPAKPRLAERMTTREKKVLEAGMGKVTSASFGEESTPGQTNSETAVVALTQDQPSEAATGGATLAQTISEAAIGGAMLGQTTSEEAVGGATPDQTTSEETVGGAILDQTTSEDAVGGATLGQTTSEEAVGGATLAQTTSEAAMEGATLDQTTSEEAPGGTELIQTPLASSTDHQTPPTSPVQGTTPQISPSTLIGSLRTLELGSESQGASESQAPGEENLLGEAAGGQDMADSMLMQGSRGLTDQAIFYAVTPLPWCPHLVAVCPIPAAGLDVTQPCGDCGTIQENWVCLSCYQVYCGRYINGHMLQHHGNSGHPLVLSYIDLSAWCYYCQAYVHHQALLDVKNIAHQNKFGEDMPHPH
Description: (§1) The activity of the curcuphenol analogues was assessed with purified HDAC enzymes from all classes I, II, and IV, as well as a select member of HDAC class III (SIRT1). HDACs 1-9 and SIRT1 were evaluated using HDAC Fluorogenic Assay Kits (BPS Biosciences). All assays were completed in black-sided clear-bottom 96 well plates (PerkinElmer), and all treatments were plated in triplicates. Treatment started at 5 μM and was two-fold diluted to a concentration 0.02 μM. The assays were measured using the Synergy HI hybrid reader (BioTek) and Gen5 software (BioTek), excitation was set to 360 nm and detection was measured at 450 nm with a gain of 100. Alternatively HDAC 10 and 11 (BPS Biosciences) were optimized for HDAC concentration using the HDAC-Glo™ I/II Assay and Screening System (Promega). Following optimization each HDAC was run following the Promega protocol in black-sided clear-bottomed 96 well plates in triplicates with same treatments listed above (PerkinElmer). Luminescence was read 30 minutes after HDAC-Glo™I/II reagent was added using the Synergy HI hybrid reader (BioTek) and Gen5 software (Bio-Tek). […] To calculate percent activity, the average of blank wells was subtracted from all treatment groups. The relative mean of activity of the HDAC being measured was determined and all wells that received treatment were divided this average, to give a percentage of activity.
(§2) To evaluate the effect of the compounds on specific HDACs, their activity was assessed with purified HDAC enzymes from all classes I, II, and IV, as well as a select member of HDAC class III (SIRT1). HDACs 1-9 and SIRT1 were evaluated using HDAC Fluorogenic Assay Kits (BPS Biosciences) following the manufacturer's recommendations. Compound treatment started at 5 μM and was two-fold diluted to a concentration 0.02 μM. […] The assays were measured using the Synergy HI hybrid reader (BioTek) and Gen5 software (Bio-Tek). […] To calculate the fold change in HDAC activity, the values from each treated well were divided by the relative mean of activity of the specific HDAC being measured.

SIRT1 = biological target: T2, SIRT1 (Homo sapiens, UniProt Q96EB6); assay: Individualized HDAC assay, SIRT1
T2 construct: purchased BPS Biosciences
T2 sequence (Q96EB6 1-747): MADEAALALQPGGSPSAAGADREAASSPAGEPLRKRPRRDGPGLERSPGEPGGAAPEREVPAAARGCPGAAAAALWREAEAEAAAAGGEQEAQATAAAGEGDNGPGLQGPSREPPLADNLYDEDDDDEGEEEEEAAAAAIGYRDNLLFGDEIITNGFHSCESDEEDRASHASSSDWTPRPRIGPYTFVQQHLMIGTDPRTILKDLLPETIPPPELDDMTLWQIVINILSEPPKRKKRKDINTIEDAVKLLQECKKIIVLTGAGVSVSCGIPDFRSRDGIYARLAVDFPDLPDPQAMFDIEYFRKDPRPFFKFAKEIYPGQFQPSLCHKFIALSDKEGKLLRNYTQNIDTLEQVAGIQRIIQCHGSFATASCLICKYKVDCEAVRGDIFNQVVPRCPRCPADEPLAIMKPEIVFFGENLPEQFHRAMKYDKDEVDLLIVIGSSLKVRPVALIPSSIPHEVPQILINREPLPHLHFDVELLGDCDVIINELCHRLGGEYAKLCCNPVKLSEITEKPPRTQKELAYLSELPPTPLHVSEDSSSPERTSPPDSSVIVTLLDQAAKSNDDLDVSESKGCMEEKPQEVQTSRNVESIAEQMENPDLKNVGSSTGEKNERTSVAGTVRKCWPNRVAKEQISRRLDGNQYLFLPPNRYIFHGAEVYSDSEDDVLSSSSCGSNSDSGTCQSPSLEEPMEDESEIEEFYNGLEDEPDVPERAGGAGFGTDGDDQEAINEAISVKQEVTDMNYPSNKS
Description: as §1
To evaluate the effect of the compounds on specific HDACs, their activity was assessed with purified HDAC enzymes from all classes I, II, and IV, as well as a select member of HDAC class III (SIRT1). HDACs 1-9 and SIRT1 were evaluated using HDAC Fluorogenic Assay Kits (BPS Biosciences) following the manufacturer's recommendations. Compound treatment started at 5 μM and was two-fold diluted to a concentration 0.02 μM. Alternatively, HDAC 10 and 11 assays (BPS Biosciences) were optimized to be used with the HDAC-Glo™ I/II Assay and Screening System (Promega). The assays were measured using the Synergy HI hybrid reader (BioTek) and Gen5 software (Bio-Tek). […] To calculate the fold change in HDAC activity, the values from each treated well were divided by the relative mean of activity of the specific HDAC being measured.

HDAC4 = biological target: T3, HDAC4 (Homo sapiens, UniProt P56524); assay: Individualized HDAC assay, HDAC4
T3 construct: purchased BPS Biosciences
T3 sequence (P56524 whole entry): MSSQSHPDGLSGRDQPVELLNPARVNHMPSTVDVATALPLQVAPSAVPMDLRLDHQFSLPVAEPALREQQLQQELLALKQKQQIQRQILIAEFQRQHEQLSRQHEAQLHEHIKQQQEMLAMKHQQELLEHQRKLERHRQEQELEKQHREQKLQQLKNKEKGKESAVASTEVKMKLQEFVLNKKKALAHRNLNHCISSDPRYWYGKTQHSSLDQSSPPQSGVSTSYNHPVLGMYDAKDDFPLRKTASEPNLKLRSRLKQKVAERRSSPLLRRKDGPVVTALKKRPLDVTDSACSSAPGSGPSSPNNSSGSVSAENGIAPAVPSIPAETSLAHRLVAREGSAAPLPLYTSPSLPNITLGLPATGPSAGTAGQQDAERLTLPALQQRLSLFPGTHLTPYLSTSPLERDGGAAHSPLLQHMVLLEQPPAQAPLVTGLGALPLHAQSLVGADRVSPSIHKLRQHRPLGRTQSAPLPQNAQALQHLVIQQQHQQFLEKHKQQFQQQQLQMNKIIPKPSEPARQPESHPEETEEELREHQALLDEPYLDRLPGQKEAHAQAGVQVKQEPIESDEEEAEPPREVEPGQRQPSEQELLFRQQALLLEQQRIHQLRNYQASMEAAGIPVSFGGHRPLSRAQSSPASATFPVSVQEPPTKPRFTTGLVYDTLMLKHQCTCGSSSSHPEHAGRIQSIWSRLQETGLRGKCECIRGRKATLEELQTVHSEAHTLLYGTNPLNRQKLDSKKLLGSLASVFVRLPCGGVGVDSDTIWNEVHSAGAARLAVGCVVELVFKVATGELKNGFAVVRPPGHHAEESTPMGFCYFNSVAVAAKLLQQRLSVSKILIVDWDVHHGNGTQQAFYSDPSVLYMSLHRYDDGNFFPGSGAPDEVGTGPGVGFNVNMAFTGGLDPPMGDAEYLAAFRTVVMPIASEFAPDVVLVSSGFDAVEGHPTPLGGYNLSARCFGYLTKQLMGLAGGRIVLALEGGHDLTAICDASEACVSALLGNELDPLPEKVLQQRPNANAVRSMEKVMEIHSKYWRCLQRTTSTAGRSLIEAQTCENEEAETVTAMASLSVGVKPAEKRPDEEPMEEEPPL
Description: as §1, §2

HDAC2 = biological target: T4, HDAC2 (Homo sapiens, UniProt Q92769); assay: Individualized HDAC assay, HDAC2
T4 construct: purchased BPS Biosciences
T4 sequence (Q92769 whole entry): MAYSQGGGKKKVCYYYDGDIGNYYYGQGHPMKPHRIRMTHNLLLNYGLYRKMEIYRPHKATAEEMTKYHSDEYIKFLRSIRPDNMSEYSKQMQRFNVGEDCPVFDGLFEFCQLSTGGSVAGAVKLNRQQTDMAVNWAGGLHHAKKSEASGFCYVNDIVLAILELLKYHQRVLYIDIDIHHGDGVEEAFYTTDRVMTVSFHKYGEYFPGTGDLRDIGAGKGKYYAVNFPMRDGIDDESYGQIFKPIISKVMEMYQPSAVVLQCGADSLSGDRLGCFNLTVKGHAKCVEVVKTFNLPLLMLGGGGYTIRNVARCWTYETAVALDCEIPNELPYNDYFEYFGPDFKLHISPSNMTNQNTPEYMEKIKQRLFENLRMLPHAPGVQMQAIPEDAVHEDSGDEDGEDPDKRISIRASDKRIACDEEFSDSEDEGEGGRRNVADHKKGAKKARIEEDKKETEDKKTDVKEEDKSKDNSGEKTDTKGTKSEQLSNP
Description: The activity of the curcuphenol analogues was assessed with purified HDAC enzymes from all classes I, II, and IV, as well as a select member of HDAC class III (SIRT1). HDACs 1-9 and SIRT1 were evaluated using HDAC Fluorogenic Assay Kits (BPS Biosciences). All assays were completed in black-sided clear-bottom 96 well plates (PerkinElmer), and all treatments were plated in triplicates. Treatment started at 5 μM and was two-fold diluted to a concentration 0.02 μM. The assays were measured using the Synergy HI hybrid reader (BioTek) and Gen5 software (BioTek), excitation was set to 360 nm and detection was measured at 450 nm with a gain of 100. […] Luminescence was read 30 minutes after HDAC-Glo™I/II reagent was added using the Synergy HI hybrid reader (BioTek) and Gen5 software (Bio-Tek). […] The relative mean of activity of the HDAC being measured was determined and all wells that received treatment were divided this average, to give a percentage of activity.
To evaluate the effect of the compounds on specific HDACs, their activity was assessed with purified HDAC enzymes from all classes I, II, and IV, as well as a select member of HDAC class III (SIRT1). HDACs 1-9 and SIRT1 were evaluated using HDAC Fluorogenic Assay Kits (BPS Biosciences) following the manufacturer's recommendations. […] The assays were measured using the Synergy HI hybrid reader (BioTek) and Gen5 software (Bio-Tek). […]

Structure (SMILES) | HDAC6 activity (HDAC6) | SIRT1 activity (SIRT1) | HDAC4 activity (HDAC4) | HDAC2 activity (HDAC2) | HDAC6 activity (HDAC6; listed as PO-3-97-1) | SIRT1 activity (SIRT1; listed as P03-7-1) | SIRT1 activity (SIRT1; listed as PO-3-97-1) | HDAC4 activity (HDAC4; listed as PO-3-97-1)
CC(C)=CCCCc1ccc(C)cc1O [P02-113] | no change in activity; also recorded: did not affect the activity; also recorded: unaffected | did not demonstrate a change in activity; also recorded: no effect was observed; also recorded: no change in activity | no change in activity; also recorded: did not affect the activity; also recorded: unaffected | no significant change in HDAC activity |  |  |  | 
COc1ccc(C(C)CCC=C(C)C)c(O)c1 (stereo not drawn) [P03-97-1] | no change in activity; also recorded: unaffected | did not demonstrate a change in activity | no change in activity; also recorded: unaffected | no significant change in HDAC activity | did not affect the activity | no change in activity | no effect was observed | did not affect the activity
